{"source": "patent US20100216751A1", "about": "(priority 2007, published 2010)", "key": {"[1]": {"assay": "Pharmacokinetic evaluation of bevirimat HPβCD formulation, intravenous, male Cynomolgus monkeys", "procedure": "Six male Cynomolgus monkeys having an initial body weight of about 3.5 to about 4.5 kg are allowed 7 days to acclimate to their individual housing units. Monkeys are supplied with water and a commercial diet ad libitum prior to the study initiation. Food is withheld from the monkeys for a minimum of twelve hours before the study and during the study until four hours postdose when food is returned. Water is supplied ad libitum.\nTest formulations are administered to the monkeys at time 0 on appropriate days. Test formulations will be dosed orally via oral gavage or intravenously.\nSamples are drawn at the frequencies indicated below. Each blood sample (0.5 mL) is collected from the monkey's saphenous vein via a butterfly catheter and placed into a chilled polypropylene tube containing sodium heparin as the anticoagulant. Blood samples are centrifuged at a temperature of 4° C. at a speed of 3,000 rpm for 15 minutes. All samples are maintained chilled throughout processing. Plasma is collected after centrifugation, pipetted into a 2-mL polypropylene microtube, and frozen on dry-ice pending analytical evaluation."}, "human serum albumin": {"target": "human serum albumin (Homo sapiens, UniProt P02768)", "sequence (P02768 25-609)": "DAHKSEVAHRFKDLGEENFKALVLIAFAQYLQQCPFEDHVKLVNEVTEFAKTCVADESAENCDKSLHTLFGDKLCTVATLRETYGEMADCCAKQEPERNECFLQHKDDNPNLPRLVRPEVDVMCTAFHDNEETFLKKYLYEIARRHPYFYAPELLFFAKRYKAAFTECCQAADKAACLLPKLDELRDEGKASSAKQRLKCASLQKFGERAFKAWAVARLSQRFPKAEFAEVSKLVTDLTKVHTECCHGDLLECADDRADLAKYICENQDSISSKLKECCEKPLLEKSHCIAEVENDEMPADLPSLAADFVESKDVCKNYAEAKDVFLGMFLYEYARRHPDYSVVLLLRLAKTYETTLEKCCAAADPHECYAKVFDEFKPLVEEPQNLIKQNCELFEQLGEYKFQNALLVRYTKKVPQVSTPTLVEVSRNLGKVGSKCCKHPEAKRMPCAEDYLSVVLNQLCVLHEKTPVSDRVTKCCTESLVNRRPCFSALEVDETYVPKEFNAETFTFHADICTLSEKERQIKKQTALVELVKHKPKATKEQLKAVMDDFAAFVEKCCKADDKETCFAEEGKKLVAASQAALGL", "assay": "Protein binding to human serum albumin", "type": "in vitro ADME"}, "[2]": {"conditions": "2.5 mg FAE/mL in 10% HPβCD+3% Mannitol in water, 10 mg FAE/monkey intravenous injection, monkeys 115,116,120,AVG"}, "[3]": {"conditions": "male, cynomolgus monkey, plasma, iv, 10 mg"}}, "note": "Where “and” joins values, the source holds several entries; their conditions need not be identical. Equal entries are not always repeated."}
{"compound": "C=C(C)[C@@H]1CC[C@]2(C(=O)O)CC[C@]3(C)[C@H](CC[C@@H]4[C@@]5(C)CC[C@H](OC(=O)CC(C)(C)C(=O)O)C(C)(C)[C@@H]5CC[C@]43C)[C@@H]12", "note": "[Bevirimat, 3-O-(3′,3′-dimethylsuccinyl)betulinic acid]", "values": [{"measurement": "AUCall", "setting": "[1]; [2]", "result": "81549 ng·h/mL and 84743 ng·h/mL"}, {"measurement": "C0", "setting": "[1]; [2]", "result": "54.673 µg/mL and 39.4 µg/mL"}, {"measurement": "CL", "setting": "[1]; [2]", "result": "0.023 L/h/kg and 0.032 L/h/kg and 0.025 L/h/kg"}, {"measurement": "Dnzed AUCall", "setting": "[1]; [2]", "result": "46879 ng·h/mL/mg/kg and 41590 ng·h/mL/mg/kg and 31505 ng·h/mL/mg/kg and 39991 ng·h/mL/mg/kg"}, {"measurement": "t1/2", "setting": "[1]; [2]", "result": "24.7 h and 15.5 h and 18.3 h"}, {"measurement": "Plasma Concentration", "setting": "[1]; 0.033 hr, 2.5 mg FAE/mL in 10% HPβCD+3% Mannitol in water, 10 mg FAE/monkey intravenous injection, monkeys 115,116,120,AVG", "result": 39400, "unit": "ng/mL"}, {"measurement": "Plasma Concentration", "setting": "[1]; 0.25 hr, 2.5 mg FAE/mL in 10% HPβCD+3% Mannitol in water, 10 mg FAE/monkey intravenous injection, monkeys 115,116,120,AVG", "result": "41600 ng/mL and 23100 ng/mL and 32333 ng/mL"}, {"measurement": "Plasma Concentration", "setting": "[1]; 0.50 hr, 2.5 mg FAE/mL in 10% HPβCD+3% Mannitol in water, 10 mg FAE/monkey intravenous injection, monkeys 115,116,120,AVG", "result": "19800 ng/mL and 14800 ng/mL and 19967 ng/mL"}, {"measurement": "Plasma Concentration", "setting": "[1]; 1.0 hr, 2.5 mg FAE/mL in 10% HPβCD+3% Mannitol in water, 10 mg FAE/monkey intravenous injection, monkeys 115,116,120,AVG", "result": "20200 ng/mL and 11700 ng/mL and 18233 ng/mL"}, {"measurement": "Plasma Concentration", "setting": "[1]; 12 hr, 2.5 mg FAE/mL in 10% HPβCD+3% Mannitol in water, 10 mg FAE/monkey intravenous injection, monkeys 115,116,120,AVG", "result": "384 ng/mL and 404 ng/mL and 517 ng/mL"}, {"measurement": "Plasma Concentration", "setting": "[1]; 24 hr, 2.5 mg FAE/mL in 10% HPβCD+3% Mannitol in water, 10 mg FAE/monkey intravenous injection, monkeys 115,116,120,AVG", "result": "367 ng/mL and 245 ng/mL and 320 ng/mL"}, {"measurement": "Plasma Concentration", "setting": "[1]; 48 hr, 2.5 mg FAE/mL in 10% HPβCD+3% Mannitol in water, 10 mg FAE/monkey intravenous injection, monkeys 115,116,120,AVG", "result": "148 ng/mL and 81.0 ng/mL and 121 ng/mL"}, {"measurement": "Plasma Concentration", "setting": "[1]; 72 hr, 2.5 mg FAE/mL in 10% HPβCD+3% Mannitol in water, 10 mg FAE/monkey intravenous injection, monkeys 115,116,120,AVG, BLOQ=below 50 ng/mL", "result": "BLOQ"}, {"measurement": "concentration at 0.033 hr", "setting": "[1]; male, cynomolgus monkey, in vivo, iv, 10 mg FAE/monkey, Plasma concentration, 0.033 hr, 2.5 mg FAE/mL in 10% HPβCD+3% Mannitol in water, 10 mg FAE/monkey intravenous injection, monkeys 115,116,120,AVG", "result": 50.6, "unit": "µg/mL"}, {"measurement": "concentration at 0.25 hr", "setting": "[1]; male, cynomolgus monkey, in vivo, iv, 10 mg FAE/monkey, Plasma concentration, 0.25 hr, 2.5 mg FAE/mL in 10% HPβCD+3% Mannitol in water, 10 mg FAE/monkey intravenous injection, monkeys 115,116,120,AVG", "result": 32300, "unit": "ng/mL"}, {"measurement": "concentration at 0.5 hr", "setting": "[1]; male, cynomolgus monkey, in vivo, iv, 10 mg FAE/monkey, Plasma concentration, 0.50 hr, 2.5 mg FAE/mL in 10% HPβCD+3% Mannitol in water, 10 mg FAE/monkey intravenous injection, monkeys 115,116,120,AVG", "result": 25300, "unit": "ng/mL"}, {"measurement": "concentration at 1 hr", "setting": "[1]; male, cynomolgus monkey, in vivo, iv, 10 mg FAE/monkey, Plasma concentration, 1.0 hr, 2.5 mg FAE/mL in 10% HPβCD+3% Mannitol in water, 10 mg FAE/monkey intravenous injection, monkeys 115,116,120,AVG", "result": 22800, "unit": "ng/mL"}, {"measurement": "concentration at 12 hr", "setting": "[1]; male, cynomolgus monkey, in vivo, iv, 10 mg FAE/monkey, Plasma concentration, 12 hr, 2.5 mg FAE/mL in 10% HPβCD+3% Mannitol in water, 10 mg FAE/monkey intravenous injection, monkeys 115,116,120,AVG", "result": 762, "unit": "ng/mL"}, {"measurement": "concentration at 24 hr", "setting": "[1]; male, cynomolgus monkey, in vivo, iv, 10 mg FAE/monkey, Plasma concentration, 24 hr, 2.5 mg FAE/mL in 10% HPβCD+3% Mannitol in water, 10 mg FAE/monkey intravenous injection, monkeys 115,116,120,AVG", "result": 347, "unit": "ng/mL"}, {"measurement": "concentration at 48 hr", "setting": "[1]; male, cynomolgus monkey, in vivo, iv, 10 mg FAE/monkey, Plasma concentration, 48 hr, 2.5 mg FAE/mL in 10% HPβCD+3% Mannitol in water, 10 mg FAE/monkey intravenous injection, monkeys 115,116,120,AVG", "result": 134, "unit": "ng/mL"}, {"measurement": "AUC", "setting": "[1]; male, cynomolgus monkey, in vivo, iv, 10 mg, AUCall, 2.5 mg FAE/mL in 10% HPβCD+3% Mannitol in water, 10 mg FAE/monkey intravenous injection, monkeys 115,116,120,AVG", "result": 114000, "unit": "ng·h/mL"}, {"measurement": "C0", "setting": "[1]; male, cynomolgus monkey, in vivo, iv, 10 mg, C0, 2.5 mg FAE/mL in 10% HPβCD+3% Mannitol in water, 10 mg FAE/monkey intravenous injection, monkeys 115,116,120,AVG", "result": 54.2, "unit": "µg/mL"}, {"measurement": "half-life", "setting": "[1]; male, cynomolgus monkey, in vivo, iv, 10 mg, t1/2, 2.5 mg FAE/mL in 10% HPβCD+3% Mannitol in water, 10 mg FAE/monkey intravenous injection, monkeys 115,116,120,AVG", "result": 882, "unit": "min"}, {"measurement": "AUC", "setting": "[1]; [3]", "result": 58300, "unit": "ng·h/mL"}, {"measurement": "C0", "setting": "[1]; [3]", "result": 49.4, "unit": "µg/mL"}, {"measurement": "Tmax", "setting": "[1]; [3]", "result": 0, "unit": "h"}, {"measurement": "clearance", "setting": "[1]; male, cynomolgus monkey, plasma, iv, 10 mg, CL, 2.5 mg FAE/mL in 10% HPβCD+3% Mannitol in water, 10 mg FAE/monkey intravenous injection, monkeys 115,116,120,AVG", "result": 0.333, "unit": "mL/min/kg"}, {"measurement": "fraction unbound", "setting": "human serum albumin", "result": "≤ 0.01"}]}
